In patent US5734081A, “Arylthio compounds” (Warner-Lambert Company, priority 1995, dated 1998):
Read-outs that look alike come from different tables or passages of the source.

Key:
HIV-1IIIb [1] = experiment: Anti-HIV activity, HIV-1IIIb in MT-2 cells; assay type: cell-based; conditions: Human immunodeficiency virus 1, MT2; MT-2, HIV-1IIIb
Description: (§1) The compounds of the invention were also evaluated against various other HIV strains and cell lines utilizing the assay methodology described above. The compounds were additionally evaluated against clinical isolates of HIV strains.

HIV-1A17 [2] = experiment: Anti-HIV activity, HIV-1A17 in MT-2 cells; assay type: cell-based; conditions: Human immunodeficiency virus 1, MT2
Description: as §1

[3] = H9 cell cytotoxicity (XTT assay, uninfected cells); assay type: cell-based; conditions: human, drug alone, read-out: IC50 (Inhibitory Concentration where drug alone inhibits cell growth)
Description: (§2) The H9 T-cell line is batch infected with HIV virus at an M0I of 0.01. After 2 hours absorption, the cells are washed, resuspended in RPMI-1640/10% fetal calf serum, and seeded at […] of a 96-well plate. A duplicate plate of uninfected H9 cells is prepared for the cytotoxicity assay. Drugs are serially diluted 1/3.16 in DMSO, transferred to media at an 8× concentration, and then added to the cultures in triplicate. The final DMSO concentration of 0.002 (0.2%).
(§3) Viral production is measured by RT assay and cytotoxicity is measured by XTT assay at 7 days post-infection. The RT assay is performed as a modification of Borroto-Esoda and Boone, J. Virol., 1991;65:1952-1959 and quantitated using a Molecular Dynamics Phosphoimager with Imagequant software. The XTT assay is performed as a modification of Roehm, et al., J. Immuno. Methods., 1991;142:257-265 and quantitated using a molecular Devices Thermomax plate reader with Softmax software.
(§4) Data is electronically transferred to a Microsoft Excell spreadsheet for analysis. The RT assay values equivalent to 50% and 90% inhibition of virus production are calculated from the untreated controls. The concentrations of inhibitor required to produce these values (IC50 and IC90) are interpolated from data points flanking these RT activities. The XTT assay values equivalent to 50% cytotoxicity are calculated from the untreated controls. The concentrations of inhibitor required to produce this value are interpolated from data points flanking these XTT values.

HIV-1 [4] = experiment: HIV H9 cell assay, anti-HIV-1 activity; assay type: cell-based; conditions: Human immunodeficiency virus 1, H9, 168 h, read-out: EC50 (Effective Concentration which protects cells from viral cytopathic effects)
Text: Another test system utilized to evaluate the invention compounds is called HIV H9 assay. The HIV H9 cell assay measures the inhibitor concentration required to suppress HIV-1 virus replication. In this system, viral growth occurs through multiple rounds of the life-cycle. Any suppression of the replication kinetics results in a geometric decrease in virus production. As a result, this assay is a sensitive means of measuring the ability of a compound to inhibit HIV-1 viral replication.
as §2, §3, §4

Strep. pyogenes c-203 = experiment: Antibacterial activity, microtitration; assay type: cell-based; conditions: Gram (+)
Description: (§5) The compounds are additionally useful as broad spectrum antibiotics. Minimum inhibitory concentrations were determined utilizing microtitration techniques described by Heifetz, et. al., Antimicrobial Agents and Chemotherapy, 1974, Vol. 6, 124. The data establish that the compounds have activity against a broad spectrum of bacteria, both Gram +and Gram -. Accordingly, the compounds can be utilized to treat and prevent bacterial diseases in animals and humans. They can also be used as industrial disinfectants, for example, to reduce bacterial growth in shower stalls and public areas.

E. coli B90 = experiment: Antibacterial activity, microtitration; assay type: cell-based; conditions: Gram (-)
Description: as §5

Stah. aureus RBI = experiment: Antibacterial activity, microtitration; assay type: cell-based; conditions: Gram (+)
Description: as §5

E. coli MC4100 = experiment: Antibacterial activity, microtitration; assay type: cell-based; conditions: Gram (-)
Description: as §5

[5] = CEM cell growth inhibition (XTT, noninfected cells); assay type: cell-based; conditions: human, CEM Cell Assay, drug alone, read-out: IC50 (Inhibitory Concentration where drug alone inhibits cell growth)
Description: (§6) Yet another test system employed to determine antiviral activity is called the CEM cell assay.
(§7) T4 lymphocytes (CEM cell line) are exposed to HIV at a virus to cell ratio approximately 0.05, and plated along with noninfected control cells in 96-well microliter plates.
(§8) The candidate agent is dissolved in dimethyl sulfoxide (unless otherwise noted), then diluted 1:200 in cell culture medium. Further dilutions (half-log10) are prepared before adding to an equal volume of medium containing either infected or noninfected cells. Cultures are incubated at 37° in a 5% carbon dioxide atmosphere for 6 or 7 days. The tetrazolium salt, XTT, is added to all wells, and cultures are incubated to allow formazan color development by viable cells (J. National Cancer Institute, 1989;81:577-586). Individual wells are analyzed spectrophotometrically to quantitate formazan production, and in addition are viewed microscopically for detection of viable cells confirmation of protective activity.
(§9) Drug-tested virus-infected cells are compared with drug-treated noninfected cells and with other appropriate controls (untreated infected and untreated noninfected cells, drug-contain wells without cells, etc.) on the same plate. Data are reviewed in comparison with other tests done at the same time and a determination about activity is made.

HIV-1 [6] = experiment: CEM cell assay, anti-HIV-1 activity; assay type: cell-based; conditions: Human immunodeficiency virus 1, CCRF-CEM, HIV-1, 6 or 7 days, read-out: EC50 (Effective Concentration which protects cells from viral cytopathic effects)
Text: The test systems utilized to establish the antiviral activity of the arylthio compounds of this invention are well recognized in the art and are routinely employed for such purpose. For example, the assay utilized to evaluate the compounds activity against the HIV virus is that employed by the U.S. National Cancer Institute as described by Weislow O. S., et al., J. Natl. Cancer Inst., 1989;81:577-586, incorporated herein by reference.
The procedure is designed to detect agents acting at any stage of the virus reproductive cycle. The assay basically involves the killing of T4 lymphocytes by HIV. Small amounts of HIV are added to cells, and at least two complete cycles of virus reproduction are necessary to obtain the required cell killing. Agents which interact with virions, cells, or virus gene-products to interfere with viral activities will protect cells from cytolysis. The system is automated in several features to accommodate large numbers of candidate agents, and is generally designed to detect anti-HIV activity. However, compounds which degenerate or are rapidly metabolized in the culture conditions may not show activity in this screen.
as §6, §7, §8, §9

HIV-1IIIb [7] = experiment: Anti-HIV activity, HIV-1IIIb in CEM cells; assay type: cell-based; conditions: Human immunodeficiency virus 1, CCRF-CEM
Description: as §6, §7, §8, §9, §1

HIV-1N119 = experiment: Anti-HIV activity, HIV-1N119 in CEM cells; assay type: cell-based; conditions: Human immunodeficiency virus 1, CCRF-CEM
Description: as §6, §7, §8, §9, §1

HIV-16R = experiment: Anti-HIV activity, HIV-16R in MT-4 cells; assay type: cell-based, HIV-1
Description: as §1

HIV-2ROD = experiment: Anti-HIV activity, HIV-2ROD in CEM cells; assay type: cell-based; conditions: Human immunodeficiency virus 2, CCRF-CEM
Description: as §6, §7, §8, §9, §1

SIV = experiment: Antiviral activity, SIV in CEM cells; assay type: cell-based; conditions: Simian immunodeficiency virus, CCRF-CEM
HIV-1RF = experiment: Anti-HIV activity, HIV-1RF in CEM cells; assay type: cell-based; conditions: Human immunodeficiency virus 1, CCRF-CEM
Description: as §6, §7, §8, §9, §1

[8] = molecular target: T1, HIV-1 Nucleocapsid Protein (NCp7) (Human immunodeficiency virus type 1 group M subtype B, UniProt P12493); experiment: Zinc extrusion assay (TSQ fluorescence) from the zinc fingers of HIV-1 nucleocapsid protein (NCp7); assay type: biochemical; conditions: 10 μM compound, 2.8 μM NCp7, pH 7.4, 26° C., 90 minutes
T1 construct: The NCp7 protein containing 2 Zn-fingers and 2 Zn ions is incubated with drug
Text: The compounds of the present invention cause the extrusion of zinc from the nucleocapsid protein (NCp7) of HIV-1. The NC protein is highly conserved among all retroviruses (South T., Blake P., et al., Biochemistry, 1990;29:7786) and is essential for viral infectivity (Aldovini A. and Young R., J. Virology, 1990;64:1920 and Gorelick R., Nigida S., et al., J. Virology, 1990;64:3207). The zinc is normally held in NC proteins by 1 or 2 zinc fingers. In the case of HIV-1, 2 zinc fingers are present (Summers M., South T., et al., Biochemistry, 1990;29:329) and are involved specifically with the PSI site on viral RNA which controls the packaging of viral RNA. Interference of this packaging causes the formation of non-infectious virions (Dannull J., Surovoy A., et al., EMBO, 1994;13:1525). It has previously been shown that compounds that cause zinc extrusion have potent anti-HIV activity in multiple cell lines and against all retroviruses (Rice W., Schaeffer C., et al., Nature, 1993;361:473).
A fluorescence-based assay has been developed to monitor the ejection of zinc from purified HIV-1 NCp7. The fluorophore, N-(6-methoxy-8-quinolyl)-p-toluenesulfonamide (TSQ), has an increased fluorescent signal upon bonding zinc ion in solution. The NCp7 protein containing 2 Zn-fingers and 2 Zn ions is incubated with drug causing the extrusion of Zn ions. The released Zn is then sequestered by the TSQ and the increased fluorescence monitored relative to control. […] Fluorescence (excitation 355 nm emission 400 nm) was monitored versus time. Controls were the NCp7 under assay conditions without drug, and apo NCp7 (no Zn) with drug. The % Zn extrusion was calculated based on the actual fluorescence measured divided by the fluorescence of all theoretical Zn extruded (5.6 μM)×100.
Table 1 below presents data for several invention compounds evaluated in the zinc extrusion assay described above.

HIV-1A17 [9] = experiment: Anti-HIV activity, HIV-1A17 in MT-4 cells; assay type: cell-based
Description: as §1

HIV-1WEIO = experiment: Anti-HIV activity, clinical isolate HIV-1WEIO in PBL; assay type: cell-based
Description: as §1

[10] = Human immunodeficiency virus 1, MT4
[11] = Human immunodeficiency virus 1, MT4, read-out: EC50 (AZT)

O=c1[nH]cnc2c1ncn2[C@H]1CC[C@@H](CO)O1 [ddI, dideoxyinosine, reference compound]
EC50 (HIV-1IIIb [1]): 6 µM
EC50 (HIV-1A17 [2]): 4.6 µM

NS(=O)(=O)c1ccc(NC(=O)c2ccccc2S)cc1 [Example 6, 2-Thio-N-(4-sulfamoylphenyl)benzamide]
CC50 at 168 h [3]: 28 µM
EC50 (HIV-1 [4]): 2.5 µM
Minimum inhibitory concentration (Strep. pyogenes c-203): 64
Minimum inhibitory concentration (E. coli B90): 32
Minimum inhibitory concentration (Stah. aureus RBI): 128
Minimum inhibitory concentration (E. coli MC4100): 64
CC50 [5]: > 100 µM
EC50 (HIV-1 [6]): 5.2 µM

CC(=O)NS(=O)(=O)c1ccc(NC(=O)c2ccccc2SSc2ccccc2C(=O)Nc2ccc(S(=O)(=O)NC(C)=O)cc2)cc1 [Example 4, 2,2'-Dithiobis-N-[4-[(acetylamino)sulfonyl]phenyl]benzamide]
EC50 (HIV-1IIIb [7]; CEM, HIV-1IIIb, read-out: EC50): 5200 nM
CC50 at 168 h [3]: 27 µM
EC50 (HIV-1N119): 4600 nM
EC50 (HIV-16R; [10]): 1900 nM
EC50 (HIV-2ROD; CEM, HIV-2ROD, read-out: EC50): 3000 nM
EC50 (HIV-1 [4]): 4.8 µM
EC50 (SIV; read-out: EC50): 3400 nM
Minimum inhibitory concentration (Strep. pyogenes c-203): 64
Minimum inhibitory concentration (E. coli B90): 32
Minimum inhibitory concentration (Stah. aureus RBI): 256
Minimum inhibitory concentration (E. coli MC4100): 128
EC50 (HIV-1RF; CEM, HIV-1RF, read-out: EC50): 1500 nM
% Zinc Extrusion Relative to Control [8]: 87%
EC50 (HIV-1A17 [9]; [10]): 8.9 µM
EC50 (HIV-1WEIO; Human immunodeficiency virus 1): 5200 nM

Cc1cn([C@H]2C[C@H](N=[N+]=[N-])[C@@H](CO)O2)c(=O)[nH]c1=O [AZT, azidothymidine, reference compound]
EC50 (HIV-1IIIb [7]; read-out: EC50 (AZT)): 4.5 nM
EC50 (HIV-1N119; read-out: EC50 (AZT)): 44.4 nM
EC50 (HIV-16R; [11]): > 1000 nM
EC50 (HIV-2ROD; read-out: EC50 (AZT)): 1.41 nM
EC50 (SIV; read-out: EC50 (AZT)): 245 nM
EC50 (HIV-1RF; read-out: EC50 (AZT)): 0.6 nM
EC50 (HIV-1A17 [9]; [11]): 0.114 µM
EC50 (HIV-1WEIO; Human immunodeficiency virus 1, read-out: EC50 (AZT)): 3 nM
